In patent publication US20040053999A1, “Novel compounds and methods for synthesis and therapy” (priority 1997, published 2004):

Legend:
[1] = target: T1, neuraminidase (UniProt P03468); type: biochemical; details: enzyme inhibition in vitro
T1 construct: IC50; other: compound incubated in enzyme assay buffer before the test

[2] = mouse, in vivo, cited from earlier work
[3] = test system: influenza; details: mice, Ryan et al. 1994, cited from earlier work
[4] = in vivo; cited from earlier work

T1 sequence (P03468 whole entry): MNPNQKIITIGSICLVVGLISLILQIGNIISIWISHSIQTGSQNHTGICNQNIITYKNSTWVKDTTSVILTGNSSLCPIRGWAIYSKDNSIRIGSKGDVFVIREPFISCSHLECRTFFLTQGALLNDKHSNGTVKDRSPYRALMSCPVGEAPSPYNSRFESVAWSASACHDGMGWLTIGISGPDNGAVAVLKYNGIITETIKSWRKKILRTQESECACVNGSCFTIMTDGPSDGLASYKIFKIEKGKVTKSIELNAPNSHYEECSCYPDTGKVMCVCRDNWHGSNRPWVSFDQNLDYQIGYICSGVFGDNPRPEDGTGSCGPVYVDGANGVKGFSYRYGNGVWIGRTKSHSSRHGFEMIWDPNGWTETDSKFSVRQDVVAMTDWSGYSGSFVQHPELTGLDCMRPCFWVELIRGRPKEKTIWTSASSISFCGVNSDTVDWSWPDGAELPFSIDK

Row | SMILES | IC50 [1] [nM] | Bioavailability ([2]; ip) | Oral bioavailability ([2]; po) | Clearance from the plasma [2] | In vivo activity ([3]; intraperitoneal administration) | Efficacy ([3]; oral dosing) | Toxicity [4]
1 | CC(=O)N[C@H]1[C@H](O)C=C(C(=O)O)C[C@@H]1N=C(N)N [compound 94] | < 1000 |  |  |  |  |  | 
2 | CC(=O)N[C@H]1[C@H]([C@H](O)[C@H](O)CO)OC(C(=O)O)=C[C@@H]1N=C(N)N [GG167, 4-guanidino-2,4-dideoxy-2,3-dehydro-N-acetylneuraminic acid] |  | good | poor | rapid | relatively poor | poor | similarly nontoxic
3 | COCO[C@@H]1C=C(C(=O)O)C[C@H](N)[C@H]1NC(C)=O [compound 114] | 1000 to 10000 |  |  |  |  |  | 
